Test [1] relates to human TCH229. Description: Expression of human TCH229 gene in RPTEC stimulated with stimulants (TaqMan PCR). The note with it: stimulant 10 ng/ml, 0.5-8 hours after addition. The class given is cell-based. The method, then:
(§1) (2) Preparation of cDNA from Normal Human Cells Stimulated with Various Stimulants a) Renal proximal tubular epithelial cell (RPTEC) and human renal cortical epithelial cell (HRCE) (both available from Cambrex BioScience Walkersvill) were plated on a 24-well collagen-coated plate in 1×10^5 cells/well and then cultured overnight, and after the medium was replaced by […] (T3)-free Bullet Kit REGM (BIO WHITTAKER), the cells were cultured for additional 30 minutes. b) As stimulants, TGF-β1 (Wako Pure Chemical Industries, Ltd.), TNF-α (Genzyme), IL-1β (Genzyme), IL-6 (Genzyme) and PMA (Wako Pure Chemical Industries, Ltd.) were used. A solution was prepared by diluting each of these 5 stimulants at the final concentration of 10 ng/ml with T3-free Bullet Kit REGM (BIO WHITTAKER). c) Just after the culture supernatants of the RPTEC and HRCE in the above item a) were removed, the solution prepared in the above item b) was added in a volume of 500 μl/well, and the cells were cultured. As the control, a mixture of the 5 stimulants dissolved in a solvent was diluted at the same ratio as the stimulants with T3-free Bullet Kit REGM (BIO WHITTAKER) to prepare a solution, and 500 μl of the solution was added to each well of RPTEC and HRCE, and the cells were cultured. d) 0.5, 1, 2, 4, 6 and 8 hours after addition of the stimulants, the cells were recovered respectively, and total RNA was prepared by using RNeasy Mini Kit (Quiagen). The total RNA thus prepared was subjected to reverse transcription reaction using TaqMan Reverse Transcription Reagents (manufactured by Applied Biosystems, Inc.) to prepare the cDNA. (3) Analysis of Expression of Human TCH229 Gene in Commercially Available Normal Human Cells
(§2) The expression level (copy number) of human TCH229 in the cDNAs prepared from the normal human cells and the PRTEC and HRCE stimulated with the stimulants was measured by TaqMan PCR with the 2 primer DNAs used in Example 4 (that is, primer TMF (SEQ ID NO: 19) and primer TMR (SEQ ID NO: 20)) and TaqMan probe P1 (SEQ ID NO: 21). For the cDNAs prepared respectively from the normal human cells and the PRTEC and HRCE stimulated with the stimulants, the expression level (copy number) of ribosomal RNA (18S) was assayed by using Eukaryotic 18S rRNA Pre-Developed TaqMan Assay Reagents (manufactured by Applied Biosystems, Inc.), and the expression level (copy number) of human glyceraldehyde-3-phosphate dehydrogenase (GAPDH) was also assayed by using human GAPD (GAPDH) (manufactured by Applied Biosystems, Inc.). […]
(Real-time PCR tracks product formation cycle by cycle.)

The test system of test [2] is human TCH229. Description: Expression of human TCH229 gene in HRCE stimulated with stimulants (TaqMan PCR). In kind it is cell-based. The following applies: stimulant 10 ng/ml, 0.5-8 hours after addition. The method, then: as §1, §2

Take `CCCCCCCCCCCCCC(=O)O[C@@H]1[C@@H](C)[C@@]2(O)[C@@H](C=C(CO)C[C@]3(O)C(=O)C(C)=C[C@@H]23)[C@@H]2C(C)(C)[C@]12OC(C)=O` [PMA]: the “fluctuation of expression of human TCH229 (mRNA, relative to human GAPDH) as compared with the control” value in the test on human TCH229 [1] and in the test on human TCH229 [2] was “decreased depending on culture time” each time.
Turning to IL-1β: stimulant, IL-1β (Genzyme), the “fluctuation of expression of human TCH229 (mRNA, relative to human GAPDH) as compared with the control” value with human TCH229 [1] and with human TCH229 [2] was “decreased depending on culture time” in each case.
As to “TGF-β1: stimulant, TGF-β1 (Wako Pure Chemical Industries, Ltd.)”, the “fluctuation of expression of human TCH229 (mRNA, relative to human GAPDH) as compared with the control” value with human TCH229 [1] and with human TCH229 [2] was “decreased depending on culture time” in each case.
Take TNF-α: the “fluctuation of expression of human TCH229 (mRNA, relative to human GAPDH) as compared with the control” value in the test on human TCH229 [1] and with human TCH229 [2] was “decreased depending on culture time” throughout.

Values taken from patent publication US7355001B2, “Organic anion transport protein TCH229” (Takeda Pharmaceutical Company Limited, priority 2002, dated 2008).
